Test results: patent US6486202B1, “Inhibitors of isoprenyl transferase” (Eisai Company, Limited, priority 2001, dated 2002)
Each block holds one compound with its values, some of them ahead of it.

Assays:
[1] = test system: H-ras farnesylation in H-ras (61 L) transformed NIH3T3 fibroblasts; assay: Inhibition of H-ras farnesylation in whole cells (Western blot); type: cell-based; conditions: treated 24 hours
Protocol: The ability of compounds of the invention to inhibit H-ras farnesylation and rapl geranylgeranylation in whole cells was determined. H-ras (61 L) transformed NIH3T3 fibroblasts were generously provided by C. Der, Univ. N. Carolina. These fibroblasts were treated for 24 hours with 50 μM lovastatin (control) or the indicated concentrations of inhibitor. The cells were lysed in 1% NP-40, 5mM Tris-HCl (pH 8.0), 5mM EDTA, 0.1mM N-tosyl-L-phenylalanine chloromethyl ketone, 0.1mM N-tosyl-L-lysine chloromethyl ketone, and 1 mM phenylmethylsulfonyl fluoride. The lysate was centrifuged (15000×g, 5 minutes.) and the supernatant was used as a cell extract. Total protein was separated by SDS-PAGE in 15% acrylamnide gel. After transfer to IMMOBILON P™ membrane (Millipore), the blots were probed with LA069 mouse monoclonal antibody to H-ras (Quality Biotech), or rabbit polyclonal antibody to rap1/Krev (Santa Cruz Biotechnology). All Western blots were developed using ECL chemiluminescent reagents (Amersham).

[2] = test system: anchorage-independent cell growth; assay: Soft agar, anchorage-independent cell growth (Table 2); type: cell-based
GGTase = GGTase (Homo sapiens, UniProt P49354+P53609); assay: GGTase prenylation assay (partially purified GGTase, recombinant H-ras 61 L CAIL, [3H] geranylgeranyl diphosphate); type: biochemical; conditions: 5 μM recombinant H-ras (61 L, CAIL), 1 μM [3H] geranylgeranyl diphosphate
FTase = FTase (Homo sapiens, UniProt P49354+P49356); assay: FTase prenylation assay (partially purified FTase, recombinant H-ras, [3H] farnesyl pyrophosphate); type: biochemical; conditions: 3 μM recombinant H-ras, 440 nM [3H] FPP, 15 minutes at 37° C.
MIA PaCa-2 cells [3] = assay: In vivo tumor model, subcutaneous MIA PaCa-2 tumors in nude mice; design: species or system nude mice (BALB/c-nu/nu)
Protocol: 5×10^6 MIA PaCa-2 cells in Hank's balanced salt solution were injected subcutaneously into the flanks of 6 to 8 week old female nude mice (BALB/c-nu/nu) at day 1. […] Compound 10 and paclitaxel were administered intravenously once a day for 5 days from day 6. Tumor volume was measured on the days indicated. Tumor volume was calculated according to the equation: tumor volume (mm^3)=(length×width^2)/2. The results are shown in FIG. 1, where the bars indicated standard deviation. The n value for the assays is 5.

MIA PaCa-2 cells [4] = assay: Anchorage-independent growth of tumor cells in culture, compound 10 and paclitaxel; type: cell-based; conditions: for number of colonies: 17 day incubation
Protocol: 4×10^3MIA PaCa-2 cells (ATCC CRL1420) were seeded on 24-well culture plates in 0.2 mL of 0.33 Noble agar in 10% fetal calf serum/RPMI1640 medium over 0.4 mL of 0.66% Noble agar in the same culture medium. The top agar layer was overlayed with 0.2 mL of 0.66% Noble agar in culture medium. The upper agar was covered with 0.2 mL of culture medium containing the indicated concentration of paclitaxel and the indicated concentration of compound 10.
At the end of a 17 day incubation, 0.2 mL of 3.3 mg/mL 3-[4,5-dimethylthiazol-2-yl]-2,5-diphenyltetrazolium bromide in phosphate buffered saline was added and incubated for 1 hour. The number of stained colonies was analyzed with an image analyzer computer program.

[5] = paclitaxel alone 6.25 mg/kg/day intravenously once a day for 5 days from day 6

SMILES: CCc1ccc(C/C=C/C(N)CS)cc1C(=O)N[C@@H](CCSC)C(=O)O (stereo partly shown)
IC50 [1]: 360 nM
IC50 [2]: 950 nM

SMILES: CSCC[C@H](NC(=O)c1cc(C/C=C/C(N)CS)ccc1C)C(=O)O (stereo partly shown)
IC50 [1]: 4000 nM
IC50 [2]: 9000 nM

IC50 (GGTase): 450 nM
IC50 (FTase): 23 nM
SMILES: CSCCC(NC(=O)c1cc(CC=CC(N)CS)ccc1C(C)C)C(=O)O (stereo not shown)

IC50 (GGTase): 1600 nM
IC50 (FTase): 300 nM
SMILES: COC(=O)C(CCSC)NC(=O)c1cc(CC=CC(N)CS)ccc1C (stereo not shown)

IC50 (GGTase): 2170 nM
IC50 (FTase): 1 nM
SMILES: CSCCC(NC(=O)c1cc(CC=CC(N)CS)ccc1C)C(=O)O (stereo not shown)

SMILES: COC(=O)[C@H](CCSC)NC(=O)c1cc(CCC[C@@H](N)CS)ccc1C(C)C.Cl [Compound 10]
tumor regression (MIA PaCa-2 cells [3]; compound 10 25 mg/kg/day plus paclitaxel 6.25 mg/kg/day intravenously once a day for 5 days from day 6, by 20 days after tumor cell implantation): all tumors in all mice had completely regressed
number of colonies (MIA PaCa-2 cells [4]; compound 10 3.13 nM + paclitaxel 0.63 nM): 255
number of colonies (MIA PaCa-2 cells [4]; compound 10 3.13 nM + paclitaxel 1.25 nM): 204
number of colonies (MIA PaCa-2 cells [4]; compound 10 3.13 nM + paclitaxel 2.5 nM): 64
number of colonies (MIA PaCa-2 cells [4]; compound 10 3.13 nM + paclitaxel 5 nM): 8
number of colonies (MIA PaCa-2 cells [4]; compound 10 3.13 nM, paclitaxel 0 nM): 271
number of colonies (MIA PaCa-2 cells [4]; compound 10 6.25 nM + paclitaxel 0.63 nM): 214
number of colonies (MIA PaCa-2 cells [4]; compound 10 6.25 nM + paclitaxel 1.25 nM): 168
number of colonies (MIA PaCa-2 cells [4]; compound 10 6.25 nM + paclitaxel 2.5 nM): 36
number of colonies (MIA PaCa-2 cells [4]; compound 10 6.25 nM + paclitaxel 5 nM): 4
number of colonies (MIA PaCa-2 cells [4]; compound 10 6.25 nM, paclitaxel 0 nM): 210
number of colonies (MIA PaCa-2 cells [4]; compound 10 12.5 nM + paclitaxel 0.63 nM): 203
number of colonies (MIA PaCa-2 cells [4]; compound 10 12.5 nM + paclitaxel 1.25 nM): 148
number of colonies (MIA PaCa-2 cells [4]; compound 10 12.5 nM + paclitaxel 2.5 nM): 22
number of colonies (MIA PaCa-2 cells [4]; compound 10 12.5 nM + paclitaxel 5 nM): 1
number of colonies (MIA PaCa-2 cells [4]; compound 10 12.5 nM, paclitaxel 0 nM): 189
number of colonies (MIA PaCa-2 cells [4]; compound 10 25 nM + paclitaxel 0.63 nM): 173
number of colonies (MIA PaCa-2 cells [4]; compound 10 25 nM + paclitaxel 1.25 nM): 124
number of colonies (MIA PaCa-2 cells [4]; compound 10 25 nM + paclitaxel 2.5 nM): 16
number of colonies (MIA PaCa-2 cells [4]; compound 10 25 nM + paclitaxel 5 nM): 1
number of colonies (MIA PaCa-2 cells [4]; compound 10 25 nM, paclitaxel 0 nM): 161
number of colonies (MIA PaCa-2 cells [4]; compound 10 50 nM + paclitaxel 0.63 nM): 119
number of colonies (MIA PaCa-2 cells [4]; compound 10 50 nM + paclitaxel 1.25 nM): 74
number of colonies (MIA PaCa-2 cells [4]; compound 10 50 nM + paclitaxel 2.5 nM): 0
number of colonies (MIA PaCa-2 cells [4]; compound 10 50 nM + paclitaxel 5 nM): 0
number of colonies (MIA PaCa-2 cells [4]; compound 10 50 nM, paclitaxel 0 nM): 97
number of colonies (MIA PaCa-2 cells [4]; compound 10 100 nM + paclitaxel 0.63 nM): 72
number of colonies (MIA PaCa-2 cells [4]; compound 10 100 nM + paclitaxel 1.25 nM): 26
number of colonies (MIA PaCa-2 cells [4]; compound 10 100 nM + paclitaxel 2.5 nM): 0
number of colonies (MIA PaCa-2 cells [4]; compound 10 100 nM + paclitaxel 5 nM): 0
number of colonies (MIA PaCa-2 cells [4]; compound 10 100 nM, paclitaxel 0 nM): 64
number of colonies (MIA PaCa-2 cells [4]; compound 10 200 nM + paclitaxel 0.63 nM): 30
number of colonies (MIA PaCa-2 cells [4]; compound 10 200 nM + paclitaxel 1.25 nM): 11
number of colonies (MIA PaCa-2 cells [4]; compound 10 200 nM + paclitaxel 2.5 nM): 0
number of colonies (MIA PaCa-2 cells [4]; compound 10 200 nM + paclitaxel 5 nM): 0
number of colonies (MIA PaCa-2 cells [4]; compound 10 200 nM, paclitaxel 0 nM): 23
number of colonies (MIA PaCa-2 cells [4]; compound 10 400 nM + paclitaxel 0.63 nM): 6
number of colonies (MIA PaCa-2 cells [4]; compound 10 400 nM + paclitaxel 1.25 nM): 1
number of colonies (MIA PaCa-2 cells [4]; compound 10 400 nM + paclitaxel 2.5 nM): 0
number of colonies (MIA PaCa-2 cells [4]; compound 10 400 nM + paclitaxel 5 nM): 0
number of colonies (MIA PaCa-2 cells [4]; compound 10 400 nM, paclitaxel 0 nM): 3
interaction with paclitaxel (MIA PaCa-2 cells [4]; compound 10 at 3.13 to 200 nM with paclitaxel 2.5 to 5 nM): synergistic
interaction with paclitaxel (MIA PaCa-2 cells [4]; compound 10 at 100 to 200 nM with 1.25 nM paclitaxel): synergistically tumoricidal

SMILES: COC(=O)[C@H](CCSC)NC(=O)c1cc(CCCC(N)CS)ccc1C(C)C (stereo partly shown)
IC50 [1]: 28 nM
IC50 [2]: 19 nM

IC50 (GGTase): 4430 nM
IC50 (FTase): 67 nM
SMILES: CSCCC(NC(=O)c1cc(CCCC(N)CS)ccc1C(C)C)C(=O)NCc1ccco1 (stereo not shown)

IC50 (GGTase): 680 nM
IC50 (FTase): 8 nM
SMILES: CSCCC(NC(=O)c1cc(CCCC(N)CS)ccc1C(C)C)C(=O)O (stereo not shown)

IC50 (GGTase): 1840 nM
IC50 (FTase): 560 nM
SMILES: CCc1ccc(CC=CC(N)CS)cc1C(=O)NC(CCSC)C(=O)OC (stereo not shown)

SMILES: CSCC[C@H](NC(=O)c1cc(CCCC(N)CS)ccc1C(C)C)C(=O)NCc1ccco1 (stereo partly shown)
IC50 [1]: 200 nM
IC50 [2]: 300 nM

IC50 (GGTase): 420 nM
IC50 (FTase): 9 nM
SMILES: CCc1ccc(CC=CC(N)CS)cc1C(=O)NC(CCSC)C(=O)O (stereo not shown)

SMILES: COC(=O)[C@H](CCSC)NC(=O)c1cc(C/C=C/C(N)CS)ccc1C(C)C (stereo partly shown)
IC50 [1]: 22 nM
IC50 [2]: 11 nM

SMILES: CC(=O)O[C@H]1C(=O)[C@@]2(C)[C@H]([C@H](OC(=O)c3ccccc3)[C@]3(O)C[C@H](OC(=O)[C@H](O)[C@@H](NC(=O)c4ccccc4)c4ccccc4)C(C)=C1C3(C)C)[C@]1(OC(C)=O)CO[C@@H]1C[C@@H]2O [Paclitaxel, paclitaxel, reference compound]
tumor growth (MIA PaCa-2 cells [3]; [5]): inhibited tumor growth
tumor regression (MIA PaCa-2 cells [3]; [5]): no tumor regression ever occurred
number of colonies (MIA PaCa-2 cells [4]; paclitaxel 0.63 nM, compound 10 0 nM): 235
number of colonies (MIA PaCa-2 cells [4]; paclitaxel 1.25 nM, compound 10 0 nM): 234
number of colonies (MIA PaCa-2 cells [4]; paclitaxel 2.5 nM, compound 10 0 nM): 172
number of colonies (MIA PaCa-2 cells [4]; paclitaxel 5 nM, compound 10 0 nM): 48

SMILES: CCc1ccc(C/C=C/C(N)CS)cc1C(=O)N[C@@H](CCSC)C(=O)OC (stereo partly shown)
IC50 [1]: 56 nM
IC50 [2]: 13 nM

SMILES: CSCC[C@H](NC(=O)c1cc(CCCC(N)CS)ccc1C(C)C)C(=O)O (stereo partly shown)
IC50 [1]: 390 nM
IC50 [2]: 150 nM

IC50 (GGTase): 3190 nM
IC50 (FTase): 80 nM
SMILES: COC(=O)C(CCSC)NC(=O)c1cc(CC=CC(N)CS)ccc1C(C)C (stereo not shown)

SMILES: COC(=O)[C@H](CCSC)NC(=O)c1cc(C/C=C/C(N)CS)ccc1C (stereo partly shown)
IC50 [1]: 120 nM
IC50 [2]: 75 nM

IC50 (GGTase): 4440 nM
IC50 (FTase): 73 nM
SMILES: COC(=O)C(CCSC)NC(=O)c1cc(CCCC(N)CS)ccc1C(C)C (stereo not shown)

SMILES: CSCC[C@H](NC(=O)c1cc(C/C=C/C(N)CS)ccc1C(C)C)C(=O)O (stereo partly shown)
IC50 [1]: 430 nM
IC50 [2]: 160 nM
